Laboratory results as given in patent US20020028938A1, “Prostaglandin endoperoxide H synthase biosynthesis inhibitors” (priority 1997, published 2002).

melting point	Structure (SMILES)
182 to 184 °C	CS(=O)(=O)c1ccc(-c2cnn(Cc3ccccn3)c(=O)c2-c2ccc(F)cc2)cc1 [Example 27, 2-(2-Pyridylmethyl)-4-(4-fluorophenyl)-5-[4-(methylsulfonyl)phenyl]-3(2H)-pyridazinone]
110 to 116 °C	CS(=O)(=O)c1ccc(-c2cnn(-c3ccc([N+](=O)[O-])cc3)c(=O)c2-c2ccc(F)cc2)cc1 [Example 157, 2-(4-Nitrophenyl)-4-(4-fluorophenyl)-5-[4-(methylsulfonyl)phenyl]-3(2H)-pyridazinone]
111 to 117 °C	CS(=O)(=O)c1ccc(-c2cnn(-c3ccc(F)cc3)c(=O)c2OCCC2CC2)cc1 [Example 417, 2-(4-Fluorophenyl)-4-(2-cyclopropyl-1-ethoxy)-5-[4-(methylsulfonyl)phenyl]-3(2H)-pyridazinone]
156 to 157 °C	CS(=O)(=O)c1ccc(-c2cnn(Cc3cccc([N+](=O)[O-])c3)c(=O)c2-c2ccc(F)cc2)cc1 [Example 116, 2-(3-Nitrobenzyl)-4-(4-fluorophenyl)-5-[4-(methylsulfonyl)phenyl]-3(2H)-pyridazinone]
50 to 70 °C	CS(=O)(=O)c1ccc(-c2cnn(-c3cccc(Cl)c3)c(=O)c2COC(=O)c2ccccc2)cc1 [Example 208, 2-(3-Chlorophenyl)-4-(benzoyloxymethyl)-5-[4-(methylsulfonyl)phenyl]-3(2H)-pyridazinone]
205 to 207 °C	CS(=O)(=O)c1ccc(-c2cnn(CC(O)c3ccccc3)c(=O)c2-c2ccc(F)cc2)cc1 (centres unmarked) [Example 441, 2-(2-Hydroxy-2-phenylethyl)-4-(4-fluorophenyl)-5-[4-(methylsulfonyl)phenyl]-3(2H)-pyridazinone]
178 °C	Cc1ccc(Sc2c(-c3ccc(S(C)(=O)=O)cc3)cnn(-c3cccc(Cl)c3)c2=O)cc1 [Example 357, 2-(3-Chlorophenyl)-4-(4-methylphenylthio)-5-[4-(methylsulfonyl)phenyl]-3(2H)-pyridazinone]
140 to 149 °C	CS(=O)(=O)c1ccc(-c2cnn(-c3cccc(Cl)c3)c(=O)c2SCc2ccco2)cc1 [Example 360, 2-(3-Chlorophenyl)-4-(2-furylmethylthio)-5-[4-(methylsulfonyl)phenyl]-3(2H)-pyridazinone]
103 to 105 °C	CS(=O)(=O)c1ccc(-c2cnn(-c3cccc(C(F)(F)F)c3)c(=O)c2-c2ccc(Cl)cc2)cc1 [Example 101, 2-(3-Trifluoromethylphenyl)-4-(4-chlorophenyl)-5-[4-(methylsulfonyl)phenyl]-3(2H)-pyridazinone]
192 to 195 °C	C=CCc1c(-c2ccc(S(C)(=O)=O)cc2)cnn(CC(F)(F)F)c1=O [Example 222, 2-(2,2,2-Trifluoroethyl)-4-(2-propenyl)-5-[4-(methylsulfonyl)phenyl]-3(2H)-pyridazinone]
163 to 165 °C	CS(=O)(=O)c1ccc(-c2cnn(CC(F)(F)F)c(=O)c2Oc2ccc(-c3ccccc3)cc2)cc1 [Example 268, 2-(2,2,2-Trifluoroethyl)-4-(4-phenylphenoxy)-5-[4-(methylsulfonyl)phenyl]-3(2H)-pyridazinone]
160 to 161 °C	CS(=O)(=O)c1ccc(-c2cnn(CC(=O)c3ccc(OC(F)(F)F)cc3)c(=O)c2-c2ccc(F)cc2)cc1 [Example 55, 2-(4-Trifluoromethoxyphenacyl)-4-(4-fluorophenyl)-5-[4-(methylsulfonyl)phenyl]-3(2H)-pyridazinone]
93 to 96 °C	CS(=O)(=O)c1ccc(-c2cnn(Cc3cc4ccccc4s3)c(=O)c2-c2ccc(F)cc2)cc1 [Example 61, 2-(2-Benzo[b]thienylmethyl)-4-(4-fluorophenyl)-5-[4-(methylsulfonyl)phenyl]-3(2H)-pyridazinone]
154 to 156 °C	CS(=O)(=O)c1ccc(-c2cnn(CC(F)(F)F)c(=O)c2Nc2ccccc2)cc1 [Example 311, 2-(2,2,2-Trifluoroethyl)-4-anilino-5-[4-(methylsulfonyl)phenyl]-3(2H)-pyridazinone]
113 to 115 °C	COc1c(-c2ccc(S(C)(=O)=O)cc2)cnn(-c2ccc(F)c(F)c2)c1=O [Example 453, 2-(3,4-Difluorophenyl)-4-methoxy-5-[4-(methylsulfonyl)phenyl]-3(2H)-pyridazinone]
116 to 119 °C	CS(=O)(=O)c1ccc(-c2cnn(Cc3ccc4cc(F)ccc4n3)c(=O)c2-c2ccc(F)cc2)cc1 [Example 30, 2-(6-Fluoroquinolin-2-ylmethyl)-4-(4-fluorophenyl)-5-[4-(methylsulfonyl)phenyl]-3(2H)-pyridazinone]

melting point	Structure (SMILES)
186 to 188 °C	CS(=O)(=O)c1ccc(-c2cnn(CC(=O)c3ccc(Cl)cc3)c(=O)c2-c2ccc(F)cc2)cc1 [Example 47, 2-(4-Chlorophenacyl)-4-(4-fluorophenyl)-5-[4-(methylsulfonyl)phenyl]-3(2H)-pyridazinone]
112 to 114 °C	COc1c(-c2ccc(S(C)(=O)=O)cc2)cnn(-c2cccc(Cl)c2)c1=O [Example 331, 2-(3-Chlorophenyl)-4-methoxy-5-[4-(methylsulfonyl)phenyl]-3(2H)-pyridazinone]
171 to 173 °C	CS(=O)(=O)c1ccc(-c2cnn(-c3ccc(C(F)(F)F)cc3)c(=O)c2-c2ccc(F)cc2)cc1 [Example 174, 2-(4-Trifluoromethylphenyl)-4-(4-fluorophenyl)-5-[4-(methylsulfonyl)phenyl]-3(2H)-pyridazinone]
110 to 113 °C	COCCCNc1c(-c2ccc(S(C)(=O)=O)cc2)cnn(CC(F)(F)F)c1=O [Example 295, 2-(2,2,2-Trifluoroethyl)-4-(3-methoxylpropylamino)-5-[4-(methylsulfonyl)phenyl]-3(2H)-pyridazinone]
113 to 114 °C	CS(=O)(=O)c1ccc(-c2cnn(CC(F)(F)F)c(=O)c2OC2CCc3ccccc32)cc1 (centres unmarked) [Example 276, 2-(2,2,2-Trifluoroethyl)-4-(1-indanyloxy)-5-[4-(methylsulfonyl)phenyl]-3(2H)-pyridazinone]
125 to 127 °C	CC(C)COc1c(-c2ccc(S(C)(=O)=O)cc2)cnn(-c2cccc(C(F)(F)F)c2)c1=O [Example 542, 2-[3-(Trifluoromethyl)phenyl]-4-(2-methyl-1-propoxy)-5-[4-(methylsulfonyl)phenyl]-3(2H)-pyridazinone]
190 to 194 °C	CS(=O)(=O)c1ccc(-c2cnn(CC(F)(F)F)c(=O)c2Nc2cc(F)cc(F)c2F)cc1 [Example 315, 2-(2,2,2-Trifluoroethyl)-4-(2,3,5-trifluoroanilino)-5-[4-(methylsulfonyl)phenyl]-3(2H)-pyridazinone]
161 to 164 °C	CC(C)Oc1c(-c2ccc(S(C)(=O)=O)cc2)cnn(-c2cc(F)ccc2F)c1=O [Example 204, 2-(2,5-Difluorophenyl)-4-(2-propoxy)-5-[4-(methylsulfonyl)phenyl]-3(2H)-pyridazinone]
243 to 245 °C	Cc1cc(-c2c(-c3ccc(S(N)(=O)=O)cc3)cnn(-c3ccc(F)c(Cl)c3)c2=O)ccc1F [Example 389, 2-(3-Chloro-4-fluorophenyl)-4-(4-fluoro-3-methylphenyl)-5-[4-(aminosulfonyl)phenyl]-3(2H)-pyridazinone]
50 to 70 °C	CC(C)(C)SCc1c(-c2ccc(S(C)(=O)=O)cc2)cnn(-c2ccc(F)cc2)c1=O [Example 197, 2-(4-Fluorophenyl)-4-(t-butylthiomethyl)-5-[4-(methylsulfonyl)phenyl]-3(2H)-pyridazinone]
163 to 165 °C	COc1ccc(CCNc2c(-c3ccc(S(C)(=O)=O)cc3)cnn(CC(F)(F)F)c2=O)cc1OC [Example 298, 2-(2,2,2-Trifluoroethyl)-4-(3,4-dimethoxyphenethylamino)-5-[4-(methylsulfonyl)phenyl]-3(2H)-pyridazinone]
206 to 208 °C	COc1cc(Nc2c(-c3ccc(S(C)(=O)=O)cc3)cnn(CC(F)(F)F)c2=O)cc(C(F)(F)F)c1 [Example 310, 2-(2,2,2-Trifluoroethyl)-4-[3-methoxy-5-(trifluoromethyl)anilino]-5-[4-(methylsulfonyl)phenyl]-3(2H)-pyridazinone]
215 to 217 °C	Cc1ccsc1-n1ncc(-c2ccc(S(C)(=O)=O)cc2)c(-c2ccc(F)cc2)c1=O [Example 95, 2-(3-Methyl-2-thienyl)-4-(4-fluorophenyl)-5-[4-(methylsulfonyl)phenyl]-3(2H)-pyridazinone]
122 to 124 °C	CC(C)(O)COc1c(-c2ccc(S(C)(=O)=O)cc2)cnn(-c2ccc(F)c(Cl)c2)c1=O [Example 479, 2-(3-Chloro-4-fluorophenyl)-4-(2-hydroxy-2-methyl-1-propoxy)-5-[4-(methylsulfonyl)phenyl]-3(2H)-pyridazinone]
127 to 129 °C	CC(C)COc1c(-c2ccc(S(C)(=O)=O)cc2)cnn(-c2ccc(Cl)c(Cl)c2)c1=O [Example 539, 2-(3,4-Dichlorophenyl)-4-(2-methyl-1-propoxy)-5-[4-(methylsulfonyl)phenyl]-3(2H)-pyridazinone]

Structure (SMILES)	melting point
CC(C)(C)CCOc1c(-c2ccc(S(C)(=O)=O)cc2)cnn(CC(F)(F)F)c1=O [Example 280, 2-(2,2,2-Trifluoroethyl)-4-(3,3-dimethylbutoxy)-5-[4-(methylsulfonyl)phenyl]-3(2H)-pyridazinone]	83 to 85 °C
CC(C)(O)CCOc1c(-c2ccc(S(C)(=O)=O)cc2)cnn(-c2cccc(C(F)(F)F)c2)c1=O [Example 544, 2-[3-(Trifluoromethyl)phenyl]-4-(3-hydroxy-3-methyl-1-butoxy)-5-[4-(methylsulfonyl)phenyl]-3(2H)-pyridazinone]	90 to 93 °C
CS(=O)(=O)c1ccc(-c2cnn(-c3ccc(F)c(F)c3)c(=O)c2OCCCCO)cc1 [Example 541, 2-(3,4-Difluorophenyl)-4-(4-hydroxy-1-butoxy)-5-[4-(methylsulfonyl)phenyl]-3(2H)-pyridazinone]	110 to 113 °C
CC(=O)CCOc1c(-c2ccc(S(C)(=O)=O)cc2)cnn(-c2ccc(F)cc2)c1=O [Example 468, 2-(4-Fluorophenyl)-4-(3-oxo-1-butoxy)-5-[4-(methylsulfonyl)phenyl]-3(2H)-pyridazinone]	133 to 136 °C
